Results: patent US20090124587A1, “METHODS FOR TREATING CANCER USING 17alpha-HYDROXYLASE/C17,20-LYASE INHIBITORS” (priority 2007, published 2009)

What was measured:
Assay type in all cases: in vivo, human
[1] = Safety, dose limiting toxicity in phase I/II study; conditions: all subjects tested, Group 1 (250-2000 mg/day) and Group 2 (1000 mg/day)
Description: An open label phase I/II study was carried out to evaluate the safety, efficacy and recommended dose of abiraterone acetate in prostate cancer patients. Pharmacokinetics (PK), pharmacodynamics and antitumor efficacy were also studied.
(§1) The effect of abiraterone acetate on the blood levels of prostate-specific antigen (PSA) was evaluated. Two groups of subjects were involved in the study. The first group (“Group 1”) was comprised of the 18 subjects discussed above as well as 12 additional subjects that were administered 1000 mg/day of abiraterone acetate. All 30 of the subjects in Group 1 were castrated and hormone refractory; however, none of the 30 had been treated with chemotherapy, i.e., they were chemotherapy-naïve. The second group (“Group 2”) was comprised of 13 subjects, all of whom were castrated and hormone refractory. Also, these 13 subjects had been administered docetaxel and were chemotherapy refractory. The subjects in Group 2 were administered 1000 mg/day of abiraterone acetate. The subjects in both groups were administered abiraterone acetate until they progressed.

[2] = test system: circulating tumor cells (CTC); test: Number of circulating tumor cells after administration; conditions: certain patients after administration
[3] = Food effect PK study, two single oral 1000 mg doses of abiraterone acetate, fed (high fat) vs fasted
Description: (§2) To measure the amount of abiraterone and abiraterone acetate in the samples, these compounds were extracted from 100 uL human plasma using solid phase extraction (SPE) with cation mixed-mode polymer cartridges. Extracts were evaporated to dryness before reconstitution and analysis. Chromatography was carried out using a Luna™ C5 column (5 μm, 50 mm×2.1 mm id) with a gradient mobile phase consisting of 10 mM ammonium acetate and 2% propan-2-ol in acetonitrile. The flow rate was 0.2 mL/min and the run time 10.5 minutes. Abiraterone and abiraterone acetate were ionized using the electrospray interface in positive ion mode. Detection of analytes was via tandem mass spectrometry (MS/MS) in the multiple reaction monitoring (MRM) mode.
PK modeling was conducted using a non-compartmental model, extra vascular input for plasma with WinNonLin Software®. Pharmacokinetic parameters estimated in the model include:
Based on the above results, the PK parameters for a single dose of 1000 mg/day of abiraterone acetate were further studied in the 3 subjects who were administered the 1000 mg/day dose and in 3 additional subjects. Two single oral doses (1000 mg) of abiraterone acetate were administered separately, one concomitantly with food of high fat content and one in fasting state. The first single dose was administered on day −9 with PK blood samples being taken at 1, 2, 4, 6, 8, 24, 48 and 72 hours post dose. The second single dose was administered on day −3 with PK blood samples being taken at 1, 2, 4, 6, 8, 24 and 48 hours post dose for analysis.

[4] = test system: androgenic steroids, such as testosterone; test: Blood plasma levels of androgenic steroids; conditions: some subjects
Description: (§3) FIGS. 15A-15H show the blood plasma level of certain steroids over time in subjects that were administered 250 mg/day, 500 mg/day and 750 mg/day of abiraterone acetate.

[5] = test system: tumor lesions; test: Effect on tumor mass size, CT scans (RECIST), bone disease, nodes and metastases
Description: as §1
The effect of the administration of abiraterone acetate on tumor mass size was observed.

[6] = test system: alkaline phosphatase (ALP); test: Blood plasma levels of alkaline phosphatase; conditions: some subjects
Description: as §3

[7] = test system: prostate-specific antigen (PSA); test: Effect of abiraterone acetate on blood levels of prostate-specific antigen (PSA)
Description: as §1
60% of the Group 1 subjects (18 of 30) experienced a decline of PSA levels of greater than 50% for more than 10 days. A third of these subjects experienced PSA declines of greater than 90% for more than 10 days. FIGS. 9A-9D show the effect of the administration of abiraterone acetate on PSA levels for certain of the Group 1 subjects that were administered 250 mg/day, 500 mg/day, 750 mg/day and 1000 mg/day of abiraterone acetate. With respect to the Group 2 subjects, 7 of the 13 subjects experienced a decline in PSA levels of about 50% for more than 10 days.

[8] = Pharmacokinetic study of abiraterone in hormone refractory prostate cancer patients, oral doses 250-2000 mg/day, fasted
Description: A group of 15 subjects was divided into five groups. Members of each group were orally administered doses of 250 mg/day, 500 mg/day, 750 mg/day, 1000 mg/day or 2000 mg/day once a day. Before administration the subjects had fasted. PK blood samples were measured at 1, 2, 4, 6, 8, 24, and 72 hours post dose.
as §2
PK modeling was conducted using a non-compartmental model, extra vascular input for plasma with WinNonLin Software®. Pharmacokinetic parameters estimated in the model include: […]

[9] = Analgesic use in Group 1 and Group 2 subjects; conditions: subjects of both groups

CC(=O)O[C@H]1CC[C@@]2(C)C(=CCC3C2CC[C@]2(C)C(c4cccnc4)=CCC32)C1 (stereo partly shown) [abiraterone acetate, 3-acetoxy-17-(3-pyridyl)androsta-5,16-diene]
dose limiting toxicity (DLTs) [1]: No dose limiting toxicity (DLTs) were observed | number of circulating tumor cells (CTC) [2]: declines | AUC at 2000 mg relative to 1000 mg (doubling) ([3]; extended cohort, fasted group): no longer | AUC at 2000 mg relative to 1000 mg ([3]; extended cohort, fed group): approximate doubling of AUC | abiraterone acetate detected in vivo ([3]; following an oral dose of abiraterone acetate at 1000 mg): no abiraterone acetate was detected | mean drug exposure (AUC) at 2000 mg relative to 1000 mg ([3]; previously, in both dosing regimes (fed and fasted)): approximately double | blood plasma levels of androgenic steroids, such as testosterone [4]: declines | partial radiological responses as measured by CT scans (RECIST) ([5]; 20 evaluable Group 1 subjects with measurable tumor lesions): 11 subjects | subjects with ongoing stable bone disease ([5]; Group 1): Seven | subjects with regressing bone disease ([5]; Group 1): three | pelvic nodes ([5]; subject administered 250 mg/day (FIG. 10)): regression of pelvic nodes | mediastinal nodes ([5]; subject administered 500 mg/day (FIG. 13)): regression of mediastinal nodes | pelvic nodes ([5]; subject administered 750 mg/day (FIG. 11)): regression of pelvic nodes | pulmonary metastases ([5]; subject administered 750 mg/day (FIG. 14)): regression of pulmonary metastases | pelvic nodes ([5]; subject administered 1000 mg/day (FIG. 12)): regression of pelvic nodes | blood plasma levels of alkaline phosphatase (ALP) [6]: declines | subjects with decline of PSA levels of greater than 50% for more than 10 days ([7]; Group 1: 30 castrated, hormone refractory, chemotherapy-naïve subjects (18 of 30)): 60% | subjects with PSA declines of greater than 90% for more than 10 days ([7]; Group 1, fraction of these subjects): A third | subjects with decline in PSA levels of about 50% for more than 10 days ([7]; Group 2: 13 castrated, hormone refractory, docetaxel-treated chemotherapy refractory subjects, 1000 mg/day): 7 of the 13 | drug levels at 1000 mg compared with 500 mg ([8]; 1000 mg vs 500 mg Abiraterone acetate): higher | drug levels measured at 1000 mg compared with 750 mg fasting ([8]; 1000 mg vs 750 mg in a fasting state): not higher | analgesic use [9]: decrease in analgesic use was observed
